Tests used:
[1] = Stability in mouse plasma at 37° C.; format: in vitro ADME
Procedure: The stability of the acid labile, lipophilic molecular conjugates to hydrolysis in plasma was evaluated to determine their potential to release the active cancer chemotherapeutic agents into systemic circulation and thereby cause general off target toxicity (“side effects”). The conjugates were incubated with plasma of mouse, rat and human origin.
HPLC grade Methanol from Fisher (Fair lawn, NJ, USA). Part No: A452-4 (074833). HPLC grade Water from Fisher (Fair lawn, NJ, USA). Part No: W5-4 (073352). Drug-free mouse, rat and human plasmas were purchased from Innovative Research Inc. (Southfield, Mich., USA). LIPOSYN® I.V. (30% soybean oil and egg yolk phospholipids, Abbott Laboratories) Fat Emulsion from Hospira, Inc. (Lake Forest, Ill.).
Each drug (ART 198, ART 273, ART 488 and ART 489) was prepared in triplicate in mouse, rat and human plasma individually at […] concentration and vortexed for 1 minute and placed in a water bath at 37° C. at a shake rate of 75 per minute. Samples were drawn at time points of 0, 15, 30, 45, 60, 75, 90, 105, 120, 135, 150, 165, 180, 210, 240, 300, 360 and 480 minutes.
Chromatographic separation of the compounds was performed on a Waters Acquity UPLC™ using a BEH C18 column (1.7 μm, 2.1×50 mm). The mobile phase consisted of Methanol: 0.1% Formic acid (80:20). The flow rate was 0.3 ml/min; the sample injection volume was 5 μL, resulting in a 3 minute run time.
The MS instrumentation consisted of a Waters Micromass Quattro Micro™ triple-quadrupole system (Manchester, UK). The MS system was controlled by a 4.0 version of MassLynx software. Ionization was performed in the positive electrospray ionization mode. MS/MS conditions were the following: capillary voltage 3.02 kV; cone voltage 50 v; extractor voltage 5 v; and RF lens voltage 0.5 v. The source and desolvation temperatures were 100° C. and 400° C. respectively, and the desolvation and cone gas flow were 400 and 30 L/hr, respectively.
The selected mass-to-charge (m/z) ratio transitions of the ART 198 used in the selected ion monitoring (SIM) were: for ART 198, 617 (M+K)^+, for ART 273, 589 (M+K)^+, for ART 488, 913 (M+Na)^+, and for ART 489, 957 (M+Na)^+. The dwell time was set at 200 msec. MS conditions were optimized using direct infusion of standard solutions prepared in methanol and delivered by a syringe pump at a flow rate of 20 μL/min.
Samples of 100 μL were collected at time points of 0, 15, 30, 45, 60, 75, 90, 105, 120, 135, 150, 165, 180, 210, 240, 300, 360 and 480 minutes respectively and the reaction was terminated with methanol. In a separate set of experiments the acid labile, lipophilic molecular conjugates were dissolved in a small amount of ethanol and diluted into a lipid emulsion (Liposyn®) and added to mouse and human plasma before incubation and the hydrolysis of the conjugates was similarly measured. Collected plasma samples of 100 μL containing drug were placed in separate Eppendorf micro centrifuge tubes for processing. Methanol (200 μL) was added to extract the drug using the protein precipitation technique. The micro tubes were then vortex mixed for 10 minutes and centrifuged for 15 minutes at a speed of 10,000 rpm (Eppendorf 5415C centrifuge). The supernatant was collected and filtered using a 0.45 μm filter (Waters 13 mm GHP 0.45 μm) before analysis.
The weighted linear least-squares (1/x) regression was used as the mathematical model. The coefficient (r) for the compounds ranged from 0.9925 to 0.9999. The calibration range was selected according to the concentrations anticipated in the samples to be determined.
Samples were collected at various times and the percent remaining of the acid labile, lipophilic molecular conjugate of the cancer chemotherapeutic agent was determined along with the percent of the chemotherapeutic agent released from the hydrolysis of the conjugate.

CEM/VLB100 cells (MDR+) = experiment: cells; format: cell-based, human; details: for IC50: Homo sapiens, CEM/VLB100, read-out: IC50 CEM/VLB100 (MDR + HTL), CEM/VLB100, MTT; for Degree of resistance (CEM/VLB100): IC50 of the resistant line divided by IC50 of sensitive CEM cells
Excerpt: A second evaluation of the cytotoxicity of the acid labile, lipophilic molecular conjugates was undertaken.
These lines included a uterine sarcoma line, MES-SA, and its doxorubicin-resistant subline, MES-SA/Dx5. See W. G. Harker, F. R MacKintosh, and B. I. Sikic. Development and characterization of a human sarcoma cell line, MES-SA, sensitive to multiple drugs. Cancer Research 43: 4943-4950 (1983); W. G. Harker and B. I. Sikic. Multidrug (pleiotropic) resistance in doxorubicin-selected variants of the human sarcoma cell line MES-SA. Cancer Research 45: 4091 4096 (1985).
The second set of cells tested, CCRF-CEM or simply CEM, were derived from the blood of a patient with acute lymphoblastic leukemia. G. E. Foley, H. Lazarus, S. Farber, B. G. Uzman, B. A. Boone, and R E. McCarthy. Continuous culture of human lymphoblasts from peripheral blood of a child with acute leukemia. Cancer 18: 522-529 (1965). The subline CEM/VLB100 was developed to be resistant to up to vinblastine at 100 ng/ml. W. T. Beck, T. J. Mueller, and L. R. Tanzer. Altered surface membrane glycoproteins in Vinca alkaloid-resistant human leukemic lymphoblasts. Cancer Research 39: 2070-2076 (1979). Drug resistance is achieved by overexpression of the MDR1 gene. Resistance in the CEM subline designated CEM/VM-1-5, however, is “atypical.” M. K. Danks, J. C. Yalowich, and W. T. Beck. Atypical multiple drug resistance in a human leukemic cell line selected for resistance to teniposide (VM-26). Cancer Research 47: 1297-1301 (1987). The classes of drugs included in the “classic” multiple drug resistance phenotype are Vinca alkaloids, anthracyclines, epipodophyllotoxins and antibiotics. However, CEM/VM-1-5 cells retain sensitivity to the Vinca alkaloids despite resistance and cross-resistance to etoposide, anthracyclines and mitoxantrone. Danks, M. K.; Schmidt, C. A.; Cirtain, M. C.; Suttle, D. P.; Beck, W. T., Altered catalytic activity of and DNA cleavage by DNA topoisomerase II from human leukemic cells selected for resistance to VM-26. Biochemistry 1988, 27, 8861-8869. Resistance in CEM/VM-1-5 cells is effected by over expression of the […]. CEM, CEM/VLB100 and CEM/VM-1-5 cells were obtained from Dr. WT Beck, University of Illinois at Chicago.

For COC(=O)[C@@]12OC[C@]34[C@H]([C@@H](O)[C@@H]1O)[C@@]1(C)CC(=O)C(O)=C(C)[C@@H]1C[C@H]3OC(=O)C(OC(=O)CC1(O)CCCCC1)[C@@H]24 (stereo partly drawn) [ART 198], the “percent remaining of initial drug” value ([1]; 0 min) was 100%, the “percent remaining of initial drug” value ([1]; 15 min) was 96.8% and the “percent remaining of initial drug” value ([1]; 30 min) was 94.0%. For the same compound, the “percent remaining of initial drug” value ([1]; 45 min) was 85.5%, the “percent remaining of initial drug” value ([1]; 60 min) was 82.0% and the “percent remaining of initial drug” value ([1]; 75 min) was 72.6%. The “percent remaining of initial drug” value ([1]; 90 min) was 66.9%, the “percent remaining of initial drug” value ([1]; 105 min) was 63.2% and the “percent remaining of initial drug” value ([1]; 120 min) was 59.2%. For the same compound, the “percent remaining of initial drug” value ([1]; 135 min) was 57.4%, the “percent remaining of initial drug” value ([1]; 150 min) was 51.9% and the “percent remaining of initial drug” value ([1]; 165 min) was 46.2%. For the same compound, the “percent remaining of initial drug” value ([1]; 180 min) was 43.0%, the “percent remaining of initial drug” value ([1]; 210 min) was 39.3% and the “percent remaining of initial drug” value ([1]; 240 min) was 35.4%. For the same compound, the “percent remaining of initial drug” value ([1]; 300 min) was 32.4%, the “percent remaining of initial drug” value ([1]; 360 min) was 28.8% and the IC50 (CEM/VLB100 cells (MDR+)) was 7190 ± 1920 nM. For the same compound, the “Degree of resistance (CEM/VLB100)” value (CEM/VLB100 cells (MDR+)) was 76 ± 52.

In the case of CCCCCCCCCCCCCCCC1OCC(COC(=O)OC2=C(C)[C@@H]3C[C@H]4OC(=O)C(OC(=O)CC5(O)CCCCC5)[C@H]5[C@]6(C(=O)OC)OC[C@]45[C@H]([C@@H](O)[C@@H]6O)[C@@]3(C)CC2=O)O1 (stereo partly drawn) [ART 489], the “percent remaining of initial drug” value ([1]; 0 min) is reported as 100%, the “percent remaining of initial drug” value ([1]; 15 min) is reported as 95.7% and the “percent remaining of initial drug” value ([1]; 30 min) is reported as 88.6%. For the same compound, the “percent remaining of initial drug” value ([1]; 45 min) was 84.8%, the “percent remaining of initial drug” value ([1]; 60 min) was 79.2% and the “percent remaining of initial drug” value ([1]; 75 min) was 78.1%. The “percent remaining of initial drug” value ([1]; 90 min) was 70.1%, the “percent remaining of initial drug” value ([1]; 105 min) was 68.0% and the “percent remaining of initial drug” value ([1]; 120 min) was 64.1%. The “percent remaining of initial drug” value ([1]; 135 min) was 63.2%, the “percent remaining of initial drug” value ([1]; 150 min) was 59.4% and the “percent remaining of initial drug” value ([1]; 165 min) was 54.7%. The “percent remaining of initial drug” value ([1]; 180 min) was 51.6%, the “percent remaining of initial drug” value ([1]; 210 min) was 50.3% and the “percent remaining of initial drug” value ([1]; 240 min) was 47.5%. For the same compound, the “percent remaining of initial drug” value ([1]; 300 min) was 41.1%, the “percent remaining of initial drug” value ([1]; 360 min) was 38.1% and the IC50 (CEM/VLB100 cells (MDR+)) was 670 ± 71 nM. The “Degree of resistance (CEM/VLB100)” value (CEM/VLB100 cells (MDR+)) was 33 ± 0.

In the case of CCCCCCCCCCCCCCCC1OCC(COC(=O)O[C@@H]2C(=O)C=C(C)[C@@H]3C[C@H]4OC(=O)C(OC(=O)CC(O)(C(C)C)C(C)C)C5[C@@H](C)[C@@H](O)[C@@]6(O)OC[C@@]54C6[C@@]23C)O1 (stereo partly drawn) [ART 488], the “percent remaining of initial drug” value ([1]; 0 min) is reported as 100%, the “percent remaining of initial drug” value ([1]; 15 min) is reported as 91.2% and the “percent remaining of initial drug” value ([1]; 30 min) is reported as 85.7%. For the same compound, the “percent remaining of initial drug” value ([1]; 45 min) was 81.3%, the “percent remaining of initial drug” value ([1]; 60 min) was 75.0% and the “percent remaining of initial drug” value ([1]; 75 min) was 73.2%. The “percent remaining of initial drug” value ([1]; 90 min) was 65.2%, the “percent remaining of initial drug” value ([1]; 105 min) was 58.8% and the “percent remaining of initial drug” value ([1]; 120 min) was 56.4%. The “percent remaining of initial drug” value ([1]; 135 min) was 56.2%, the “percent remaining of initial drug” value ([1]; 150 min) was 55.0% and the “percent remaining of initial drug” value ([1]; 165 min) was 53.7%. For the same compound, the “percent remaining of initial drug” value ([1]; 180 min) was 53.7%, the “percent remaining of initial drug” value ([1]; 210 min) was 52.4% and the “percent remaining of initial drug” value ([1]; 240 min) was 50.3%. For the same compound, the “percent remaining of initial drug” value ([1]; 300 min) was 48.2%, the “percent remaining of initial drug” value ([1]; 360 min) was 45.6% and the IC50 (CEM/VLB100 cells (MDR+)) was 34 ± 12 nM. For the same compound, the “Degree of resistance (CEM/VLB100)” value (CEM/VLB100 cells (MDR+)) was 9 ± 4.
